Laboratory results as given in PubChem BioAssay (NCI).
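Where inhibition never reached the appropriate level, the endpoint shown equals the highest concentration tested. Otherwise, values were interpolated linearly from a five-concentration, 48-hour dose response in 96-well plates. GI50: concentration for 50% inhibition of growth. Definition used: TGI = concentration required for complete inhibition of growth.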

Key:
Assay in all cases: growth of human tumour cells (NCI), 48 h
[1] = tested on: SF-295 CNS
[2] = tested on: T-47D breast
[3] = tested on: NCI-H522 lung
[4] = tested on: SNB-75 CNS
[5] = tested on: NCI-H460 lung
[6] = tested on: PC-3 prostate
[7] = tested on: HT29 colon
[8] = tested on: HOP-92 NSCLC
[9] = tested on: A549 NSCLC
[10] = tested on: KM12 colon
[11] = tested on: NCI-H226 lung
[12] = tested on: SR leukemia
[13] = tested on: MDA-MB-231 breast
[14] = tested on: K-562 leukemia
[15] = tested on: ACHN renal
[16] = tested on: OVCAR-3 ovarian
[17] = tested on: OVCAR-4 ovarian
[18] = tested on: MCF7 breast
[19] = tested on: UACC-257 melanoma
[20] = tested on: 786-0 renal
[21] = tested on: SK-MEL-2 melanoma
[22] = tested on: U251 CNS
[23] = tested on: RXF 393 renal
[24] = tested on: HS 578T breast
[25] = tested on: COLO 205 colon
[26] = tested on: SF-268 CNS
[27] = tested on: SK-OV-3 ovarian
[28] = tested on: SW-620 colon
[29] = tested on: NCI/ADR-RES ovarian

## Cc1ccc2c(n1)C(=O)C(Cl)=C(Nc1ccc(C(F)(F)F)cc1)C2=O
[1]
  GI50: > 100 µM
  TGI: > 100 µM
[2]
  GI50: 1550 nM
  TGI: 5.06 µM
[3]
  GI50: 2000 nM
  TGI: 4.93 µM
[4]
  GI50: > 100 µM
  TGI: > 100 µM
[5]
  GI50: > 100 µM
  TGI: > 100 µM
[6]
  GI50: 3.7 µM
  TGI: 20.7 µM
[7]
  GI50: 2810 nM
  TGI: 7.43 µM
[8]
  GI50: 1490 nM
  TGI: 3.19 µM
[9]
  GI50: > 100 µM
  TGI: > 100 µM
[10]
  GI50: 70.3 µM
  TGI: > 100 µM
[11]
  GI50: 1890 nM
  TGI: 4.72 µM
[12]
  GI50: 367 nM
  TGI: 2370 nM
[13]
  GI50: 1840 nM
  TGI: 4.63 µM
[14]
  GI50: 291 nM
  TGI: 2230 nM
[15]
  GI50: 1820 nM
  TGI: 3.42 µM
[16]
  GI50: 1610 nM
  TGI: 3.03 µM
[17]
  GI50: 1690 nM
  TGI: 4.31 µM
[18]
  GI50: 1950 nM
  TGI: 5.03 µM
[19]
  GI50: 1700 nM
  TGI: 3.27 µM
[20]
  GI50: 1840 nM
  TGI: 3.7 µM
[21]
  GI50: 7.2 µM
  TGI: 32.8 µM
[22]
  GI50: 4.93 µM
  TGI: 20.5 µM
[23]
  GI50: 1570 nM
  TGI: 2950 nM
[24]
  GI50: 5.46 µM
  TGI: 59.7 µM
[25]
  GI50: 2210 nM
  TGI: 4.83 µM
[26]
  GI50: 3.57 µM
  TGI: 16.5 µM
[27]
  GI50: > 100 µM
  TGI: > 100 µM
[28]
  GI50: 1130 nM
  TGI: 3.73 µM
[29]
  GI50: 2620 nM
  TGI: 8.06 µM
